Measured values as given in patent US4647574A, “Hypoglycemic hydantoin derivatives” (Nippon Zoki Pharmaceutical Co., Ltd., priority 1984, dated 1987).

Tests used:
Blood Glucose = assay: Hypoglycemic effect (modified method by Dulin et al.); format: in vivo, rat (Sprague-Dawley-strain male); conditions: 2 hours; for Blood Glucose Level: glucose-loaded fasted rats, control 134.6 ± 2.8
Experimental: Groups of 10 Sprague-Dawley-strain male rats (weighing about 250 g each) which had fasted for 18 hours were used for measurement of hypoglycemic effect according to the modified method by Dulin et al. (Dulin et al, Proc. Soc. Expl. Med., 107, 245 (1961)). That is, 0.5 ml/100 g of 20% aqueous solution of glucose was subcutaneously administered into the backs of rats to prevent a decrease in blood glucose level because of the fasting. […] The obtained blood sample was allowed to stand for 30 minutes to complete the coagulation and was centrifuged to obtain the serum. Blood sugar level was measured according to the mutalotase GOD method (Trinder, Ann. Clin. Biochem., vol. 6, p. 24 ([…])).

Serum Triglyceride = assay: Hypolipidemic effect: serum triglyceride; format: in vivo, rat (Wister strain male); conditions: 100 mg/kg oral, 2 hours, fasted rats; for Serum Triglyceride Decrease: vs control; for Serum Triglyceride Level: control 33.5 ± 2.9
Experimental: (§1) The test drugs were orally administered to groups of 6 Wisterstrain male rats (each weighing approximately 210-250 g) which had fasted for 20 hours. 2 hours later, the serum was obtained in the same manner as described in (2). Serum triglyceride was measured by GPO-p-chlorophenol colorimetric determination (Richard et al., Clinical Chemistry, vol. 24, p. 1343 (1978)) and serum free fatty acid was measured according to the Acyl CoA Synthetase-Acyl CoA Oxidase method (Shimizu, et al., Biochem. Biophys. Res. Commun., vol. 91, p. 108 (1979)).

serum free fatty acid = assay: Hypolipidemic effect: serum free fatty acid; format: in vivo, rat (Wister strain male); conditions: 100 mg/kg oral, 2 hours, fasted rats; for Serum Fatty Acid Decrease: vs control; for Serum Fatty Acid Level: control 0.51 ± 0.44
Experimental: as §1

excreted sodium = assay: Diuretic effect: excreted sodium in rats (Lipschitz method); format: in vivo, rat (Long-Evans strain male); conditions: 20 mg/kg oral, within 1 day
Experimental: 20 mg/kg of the compound 1 of the present invention were orally administered to Long-Evans strain male rats (weighing about 130-150 g each), and the total amount of excreted sodium within 1 day was then measured according to the method by Lipschitz (JPFT, Vol. 79, p. 97 (1943)).

sodium in urine = assay: Diuretic effect: sodium in urine in mice; format: in vivo, mouse; conditions: subcutaneous, up until 2 hours after the administration
urine sugar = assay: Urine sugar in glucose loaded rats; format: in vivo, rat; conditions: 200 mg/kg oral
Experimental: In addition, 200 mg/kg of the compound 1 of the present invention were orally administered to glucose loaded rats and the urine sugar was measured.

[1] = Rattus norvegicus, 50 mg/kg oral, vs control, read-out: Blood Glucose Decrease
[2] = Rattus norvegicus, 200 mg/kg oral, vs control, read-out: Blood Glucose Decrease

| SMILES | Blood Glucose Level (Blood Glucose; 200 mg/kg oral) [mg/dL] | inhibition in vivo at 200 mg/kg (Blood Glucose; [2]) [%] | Serum Triglyceride Decrease (Serum Triglyceride) [%] | Serum Triglyceride Level (Serum Triglyceride) [mg/dL] | Serum Fatty Acid Decrease (serum free fatty acid) [%] | Serum Fatty Acid Level (serum free fatty acid) [mEq/dl] | further results |
| --- | --- | --- | --- | --- | --- | --- | --- |
| CCCCNC(=O)NS(=O)(=O)c1ccc(C)cc1 [Tolubutamide, reference compound] | – | – | – | – | – | – | Blood Glucose Level (Blood Glucose; 50 mg/kg oral): 63.4 ± 4.7 mg/dL; Blood Glucose Level (Blood Glucose; 100 mg/kg oral): 53.0 ± 4.5 mg/dL; inhibition in vivo at 50 mg/kg (Blood Glucose; [1]): 52.9%; inhibition in vivo at 100 mg/kg (Blood Glucose; Rattus norvegicus, 100 mg/kg oral, vs control, read-out: Blood Glucose Decrease): 60.6% |
| CN1C(=O)NC(=O)C1O (stereo not shown) [compound 1, 5-hydroxy-1-methylhydantoin] | 81.8 ± 4.0 | 39.2 | 68 | 10.7 ± 1.3 | 66 | 0.17 ± 0.01 | Blood Glucose Level (Blood Glucose; 25 mg/kg oral): 89.0 ± 4.1 mg/dL; Blood Glucose Level (Blood Glucose; 50 mg/kg oral): 87.1 ± 3.3 mg/dL; inhibition in vivo at 25 mg/kg (Blood Glucose; Rattus norvegicus, 25 mg/kg oral, vs control, read-out: Blood Glucose Decrease): 33.9%; inhibition in vivo at 50 mg/kg (Blood Glucose; [1]): 35.3%; total amount of excreted sodium, ratio to control group (excreted sodium): 1.8 times; increase in the amount of sodium in urine as compared with the control group (sodium in urine): 50.5%; urine sugar, difference between medicated and control groups (urine sugar): No difference was found between the medicated and control groups |
| CN1C(=O)NC(O)C1=O (stereo not shown) [compound 2, 5-hydroxy-3-methylhydantoin] | 115.5 ± 3.9 | 14.2 | 59 | 13.8 ± 0.9 | 45 | 0.28 ± 0.04 | – |
| CCN1C(=O)NC(=O)C1O (stereo not shown) [compound 3, 5-hydroxy-1-ethylhydantoin] | 76.0 ± 3.8 | 43.5 | – | – | – | – | – |
| CCCCN1C(=O)NC(=O)C1O (stereo not shown) [compound 4, 5-hydroxy-1-butylhydantoin] | 82.6 ± 3.6 | 38.6 | 54 | 15.3 ± 2.4 | 41 | 0.30 ± 0.01 | – |
| COC1C(=O)NC(=O)N1C (stereo not shown) [compound 5, 5-methoxy-1-methylhydantoin] | 109.4 ± 2.3 | 18.7 | – | – | – | – | – |
| O=C1NC(=O)N(C2CCCC2)C1O (stereo not shown) [compound 15, 5-hydroxy-1-cyclopentylhydantoin] | 85.3 ± 5.9 | 36.6 | – | – | – | – | – |
| O=C1NC(=O)N(C2CCCCC2)C1O (stereo not shown) [compound 16, 5-hydroxy-1-cyclohexylhydantoin] | 89.6 ± 2.7 | 33.4 | – | – | – | – | – |
| CN1CC(=O)NC1=O [compound 23, 1methylhydantoin] | 106.9 ± 3.9 | 20.6 | 45 | 18.5 ± 1.8 | 43 | 0.29 ± 0.01 | – |
